Source: patent US12371454B2, “Cyclic peptide compound having Kras inhibitory action” (priority 2019, dated 2025)
Starred links: 1 amine or outer side, 2 acyl side, 3 side chain; linkers in the order of their positions; H or OH if unused. Positions of bridges follow the written chain, without caps; N, C: chain ends. Non-standard residues stand in square brackets, D forms with d. Residues, ends and D or L forms follow the SMILES beside them. *: point of attachment. hPhe(3-Cl-4-CF3) = N[C@@H](CCc1ccc(C(F)(F)F)c(Cl)c1)C(=O)O; hPhe(3-F,4-CF3) = N[C@@H](CCc1ccc(C(F)(F)F)c(F)c1)C(=O)O; NMePhe(3-CF3) = CN[C@@H](Cc1cccc(C(F)(F)F)c1)C(=O)O; hPhe(4-CF3) = N[C@@H](CCc1ccc(C(F)(F)F)cc1)C(=O)O; 3Oxa8azabicyclo(3.2.1)octane = C1CC2COCC1N2*; NMePhe(4-Cl) = CN[C@@H](Cc1ccc(Cl)cc1)C(=O)O; NMePhe(4-Me) = CN[C@@H](Cc1ccc(C)cc1)C(=O)O; NMeNle(6-CHF2) = CN[C@@H](CCCCC(F)F)C(=O)O; NMePhe(3-F) = CN[C@@H](Cc1cccc(F)c1)C(=O)O; NMedβ3hAla = C[C@H](CC(=O)[*:2])N(C)[*:1]; NMeGly(cPent) = CN[C@H](C(=O)O)C1CCCC1; Phe(3-I) = N[C@@H](Cc1cccc(I)c1)C(=O)O; NMeAla(cPr) = CN[C@@H](CC1CC1)C(=O)O; NMeY = CN[C@@H](Cc1ccc(O)cc1)C(=O)O; NMeCha = CN[C@@H](CC1CCCCC1)C(=O)O; N(isopentyl)Gly = CC(C)CCNCC(=O)O; NMeChg = CN[C@H](C(=O)O)C1CCCCC1; NMeF = CN[C@@H](Cc1ccccc1)C(=O)O; N(CH2CH2)2CF2 = FC1(F)CCN(*)CC1; NMeD = CN[C@@H](CC(=O)O)C(=O)O; NMeL = CN[C@@H](CC(C)C)C(=O)O; dNMeAbu = CC[C@@H](NC)C(=O)O; NMeV = CN[C@H](C(=O)O)C(C)C; d(β3hA) = C[C@@H](N)CC(=O)O; NMeS = CN[C@@H](CO)C(=O)O; NMeA = CN[C@@H](C)C(=O)O; NMeAib = CNC(C)(C)C(=O)O; Nle = CCCC[C@H](N)C(=O)O; Piperidide = C1CCN(*)CC1; Pyrrolidide = C1CCN(*)C1; dNMeA = CN[C@H](C)C(=O)O; Ac5c = NC1(C(=O)O)CCCC1; Aze = O=C(O)[C@@H]1CCN1; CF3 = FC(F)(F)*; Sar = CNCC(=O)O

The compounds below were run against T1, Kras and SOS1 (biotin-tagged human Kras loaded with GDP, His-tagged human SOS1) (Homo sapiens, UniProt P01116, G12D) (assay: Protein-protein interaction inhibition between Kras and SOS1 (KrasGl2D-SOS PPI) using AlphaScreen). Conditions: AlphaScreen; biotin-tagged human Kras loaded with GDP, His-tagged human SOS1; read-out: KRAS G12D-SOS PPI IC50.
T1 construct: made in house; host or cells: E. coli (stated for Kras only)
Format: binding
Method in brief: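 Read-out is acceptor-bead light at 520-620 nm, arising when 680 nm-irradiated nickel donor beads pass singlet oxygen to streptavidin acceptors. The bead pair links His-tagged SOS1 with biotin-tagged, GDP-bound Kras from E. coli.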

T1 sequence (P01116 1-188 isoform P01116-2 G12D): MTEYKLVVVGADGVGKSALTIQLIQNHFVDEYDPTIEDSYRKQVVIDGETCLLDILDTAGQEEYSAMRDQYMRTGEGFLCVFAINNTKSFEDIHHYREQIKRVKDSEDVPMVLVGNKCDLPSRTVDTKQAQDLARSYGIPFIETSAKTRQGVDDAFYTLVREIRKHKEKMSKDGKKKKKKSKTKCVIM

Compound	IC50 [nM]
CC[C@H](C)[C@@H]1NC(=O)[C@H](CC(C)C)N(C)C(=O)C[C@@H](C(=O)N2C3CCC2COC3)N(C)C(=O)[C@H](C2CCCC2)N(C)C(=O)C2(CCCC2)NC(=O)[C@H](CC(=O)N2CCC(F)(F)CC2)N(C)C(=O)[C@H](CCc2ccc(C(F)(F)F)c(Cl)c2)NC(=O)CN(C)C(=O)[C@H](CC2CCCCC2)N(C)C(=O)[C@@H]2CCN2C(=O)[C@H](C)N(C)C1=O [Compound 1039] ([NMeL]I[NMeA][Aze][NMeCha][Sar][hPhe(3-Cl-4-CF3)][NMeD](N(CH2CH2)2CF2)[Ac5c][NMeGly(cPent)][NMeD]-{3Oxa8azabicyclo(3.2.1)octane}; lactam N-11)	45
CC[C@H](C)[C@@H]1NC(=O)[C@H](CC(C)C)N(C)C(=O)C[C@@H](C)NC(=O)[C@H](CC(C)C)N(C)C(=O)C2(CCCC2)NC(=O)[C@@H]2CCCN2C(=O)[C@H](CCc2ccc(C(F)(F)F)c(F)c2)NC(=O)CN(C)C(=O)[C@H](CCCCC(F)F)N(C)C(=O)CN(C)C(=O)CN(C)C1=O [Compound 1515] (cyclo([Ac5c][NMeL][d(β3hA)][NMeL]I[Sar][Sar][NMeNle(6-CHF2)][Sar][hPhe(3-F,4-CF3)]P))	77
CC[C@H](C)[C@@H]1NC(=O)[C@H](C)N(C)C(=O)C[C@@H](C)NC(=O)[C@H](CC(C)C)N(C)C(=O)[C@H](CC(C)C)N(C)C(=O)[C@@H]2CCCN2C(=O)[C@H](CCc2ccc(C(F)(F)F)cc2)NC(=O)CN(C)C(=O)[C@H](Cc2ccc(Cl)cc2)N(C)C(=O)CN(C)C(=O)CN(C)C1=O [Compound 902] (cyclo(I[Sar][Sar][NMePhe(4-Cl)][Sar][hPhe(4-CF3)]P[NMeL][NMeL][d(β3hA)][NMeA]))	140
CC[C@H](C)[C@@H]1NC(=O)[C@H](C)N(C)C(=O)C[C@@H](C)NC(=O)[C@H](CC(C)C)N(C)C(=O)[C@H](Cc2ccccc2)N(C)C(=O)[C@@H]2CCCN2C(=O)[C@H](CCc2ccc(C(F)(F)F)cc2)NC(=O)CN(C)C(=O)[C@H](Cc2ccc(Cl)cc2)N(C)C(=O)CN(C)C(=O)CN(C)C1=O [Compound 751] (cyclo(I[Sar][Sar][NMePhe(4-Cl)][Sar][hPhe(4-CF3)]P[NMeF][NMeL][d(β3hA)][NMeA]))	82
CC[C@H](C)[C@@H]1NC(=O)[C@H](C)N(C)C(=O)C[C@@H](C(=O)N2CCCCC2)N(C)C(=O)[C@H](C(C)C)N(C)C(=O)C2(CCCC2)NC(=O)[C@@H]2CCCN2C(=O)[C@H](CCc2ccc(C(F)(F)F)c(Cl)c2)NC(=O)[C@@H](C)N(C)C(=O)[C@H](Cc2ccccc2)N(C)C(=O)CN(C)C(=O)CN(C)C1=O [Compound 1844] ([NMeA]I[Sar][Sar][NMeF][dNMeA][hPhe(3-Cl-4-CF3)]P[Ac5c][NMeV][NMeD]-Piperidide; lactam N-11)	17
CC[C@H](C)[C@@H]1NC(=O)[C@H](COC)N(C)C(=O)C[C@@H](C(=O)N2CCCCC2)N(C)C(=O)[C@H](C(C)C)N(C)C(=O)C2(CCCC2)NC(=O)[C@@H]2CCCN2C(=O)[C@H](CCc2ccc(C(F)(F)F)c(Cl)c2)NC(=O)CN(C)C(=O)[C@H](CC2CCCCC2)N(C)C(=O)[C@@H]2CCN2C(=O)[C@H](C)N(C)C1=O [Compound 636] ([NMeS](Me)I[NMeA][Aze][NMeCha][Sar][hPhe(3-Cl-4-CF3)]P[Ac5c][NMeV][NMeD]-Piperidide; lactam N-11)	1.1
CC[C@H](C)[C@@H]1NC(=O)[C@H](C(C)C)N(C)C(=O)C[C@@H](C)NC(=O)[C@H](CC(C)C)N(C)C(=O)C2(CCCC2)NC(=O)[C@H](CC(C)C)N(C)C(=O)[C@H](CCc2ccc(C(F)(F)F)c(F)c2)NC(=O)CN(C)C(=O)[C@H](Cc2ccc(Cl)cc2)N(C)C(=O)CN(C)C(=O)CN(C)C1=O [Compound 851] (cyclo([Ac5c][NMeL][d(β3hA)][NMeV]I[Sar][Sar][NMePhe(4-Cl)][Sar][hPhe(3-F,4-CF3)][NMeL]))	27
CC[C@H](C)[C@@H]1NC(=O)[C@H](CC(C)C)N(C)C(=O)C[C@@H](C)NC(=O)[C@H](C(C)C)N(C)C(=O)C2(CCCC2)NC(=O)[C@@H]2CCCN2C(=O)[C@H](CCc2ccc(C(F)(F)F)c(Cl)c2)NC(=O)CN(C)C(=O)[C@H](CC2CCCCC2)N(C)C(=O)CN(CCC(C)C)C(=O)CN(C)C1=O [Compound 801] (cyclo([Ac5c][NMeV][d(β3hA)][NMeL]I[Sar][N(isopentyl)Gly][NMeCha][Sar][hPhe(3-Cl-4-CF3)]P))	450
CC[C@H](C)[C@@H]1NC(=O)[C@H](C)N(C)C(=O)C[C@@H](C(=O)N2CCCC2)N(C)C(=O)[C@H](CC(C)C)NC(=O)[C@H](Cc2ccccc2)N(C)C(=O)[C@H](C)NC(=O)[C@H](Cc2cccc(I)c2)NC(=O)CN(C)C(=O)[C@H](Cc2ccc(OC)cc2)N(C)C(=O)[C@@H]2CCN2C(=O)[C@H](C)N(C)C1=O [Compound 604] ([NMeA]I[NMeA][Aze][NMeY](Me)[Sar][Phe(3-I)]A[NMeF]L[NMeD]-Pyrrolidide; lactam N-11)	16
CCCC[C@@H]1NC(=O)[C@H](Cc2cccc(I)c2)NC(=O)CN(C)C(=O)[C@H](Cc2ccc(Cl)cc2)N(C)C(=O)CN(C)C(=O)CN(C)C(=O)[C@H]([C@@H](C)CC)NC(=O)[C@H](CC(C)C)N(C)C(=O)C[C@@H](C(=O)N2CCCCC2)N(C)C(=O)[C@H](CC(C)C)NC(=O)[C@H](Cc2cccc(C(F)(F)F)c2)N(C)C1=O [Compound 1052] ([NMeL]I[Sar][Sar][NMePhe(4-Cl)][Sar][Phe(3-I)][Nle][NMePhe(3-CF3)]L[NMeD]-Piperidide; lactam N-11)	110
CC[C@H](C)[C@@H]1NC(=O)[C@H](C)N(C)C(=O)C[C@@H](C)N(C)C(=O)[C@H](CC(C)C)NC(=O)C(C)(C)N(C)C(=O)[C@H](CC(C)C)NC(=O)[C@H](CCc2ccc(C(F)(F)F)c(Cl)c2)NC(=O)[C@@H](C)N(C)C(=O)[C@H](Cc2ccc(C)cc2)N(C)C(=O)[C@@H]2CCN2C(=O)CN(C)C1=O [Compound 1382] (cyclo([Aze][NMePhe(4-Me)][dNMeA][hPhe(3-Cl-4-CF3)]L[NMeAib]L[NMedβ3hAla][NMeA]I[Sar]))	230
CC[C@H](C)[C@@H]1NC(=O)[C@H](CC(C)C)N(C)C(=O)C[C@@H](C(=O)N2CCCCC2)N(C)C(=O)[C@H](C2CCCCC2)N(C)C(=O)[C@H](C)NC(=O)[C@@H]2CCCN2C(=O)[C@H](CCc2ccc(C(F)(F)F)c(Cl)c2)NC(=O)CN(C)C(=O)[C@H](CC2CCCCC2)N(C)C(=O)CN(C)C(=O)CN(C)C1=O [Compound 591] ([NMeL]I[Sar][Sar][NMeCha][Sar][hPhe(3-Cl-4-CF3)]PA[NMeChg][NMeD]-Piperidide; lactam N-11)	2.1
CCCC[C@@H]1NC(=O)[C@H](Cc2cccc(I)c2)NC(=O)CN(C)C(=O)[C@H](Cc2ccc(Cl)cc2)N(C)C(=O)CN(C)C(=O)CN(C)C(=O)[C@H]([C@@H](C)CC)NC(=O)[C@H](CC(C)C)N(C)C(=O)C[C@@H](C(=O)N2CCCCC2)N(C)C(=O)[C@H](CC(C)C)NC(=O)[C@H](Cc2ccc(OC(F)(F)F)cc2)N(C)C1=O [Compound 819] ([NMeL]I[Sar][Sar][NMePhe(4-Cl)][Sar][Phe(3-I)][Nle][NMeY](CF3)L[NMeD]-Piperidide; lactam N-11)	53
CC[C@H](C)[C@@H]1NC(=O)[C@H](CC(C)C)N(C)C(=O)C[C@@H](C(=O)N2CCCCC2)N(C)C(=O)[C@H](CC(C)C)NC(=O)C(C)(C)N(C)C(=O)[C@H](CC(C)C)NC(=O)[C@H](CCc2ccc(C(F)(F)F)c(F)c2)NC(=O)CN(C)C(=O)[C@H](CC2CCCCC2)N(C)C(=O)CN(C)C(=O)CN(C)C1=O [Compound 969] ([NMeL]I[Sar][Sar][NMeCha][Sar][hPhe(3-F,4-CF3)]L[NMeAib]L[NMeD]-Piperidide; lactam N-11)	2
CC[C@@H]1C(=O)NC2(CCCC2)C(=O)N(C)[C@@H](C(C)C)C(=O)N(C)[C@H](C(=O)N2CCCCC2)CC(=O)N(C)[C@@H](CC(C)C)C(=O)N[C@@H]([C@@H](C)CC)C(=O)N(C)[C@@H](C)C(=O)N2CC[C@H]2C(=O)N(C)[C@@H](CC2CCCCC2)C(=O)N(C)CC(=O)N[C@@H](CCc2ccc(C(F)(F)F)c(Cl)c2)C(=O)N1C [Compound 1438] ([NMeL]I[NMeA][Aze][NMeCha][Sar][hPhe(3-Cl-4-CF3)][dNMeAbu][Ac5c][NMeV][NMeD]-Piperidide; lactam N-11)	36
CC[C@H](C)[C@@H]1NC(=O)[C@H](CC(C)C)N(C)C(=O)C[C@@H](C)NC(=O)[C@H](C(C)C)N(C)C(=O)C2(CCCC2)NC(=O)[C@@H]2CCCN2C(=O)[C@H](CCc2ccc(C(F)(F)F)c(Cl)c2)NC(=O)CN(C)C(=O)[C@H](CC2CCCCC2)N(C)C(=O)[C@@H]2CCN2C(=O)[C@H](CC2CC2)N(C)C1=O [Compound 1612] (cyclo([Ac5c][NMeV][d(β3hA)][NMeL]I[NMeAla(cPr)][Aze][NMeCha][Sar][hPhe(3-Cl-4-CF3)]P))	390
CC[C@H](C)[C@@H]1NC(=O)[C@H](C)N(C)C(=O)C[C@@H](C)NC(=O)[C@H](C2CCCC2)N(C)C(=O)C2(CCCC2)NC(=O)[C@@H]2CCCN2C(=O)[C@H](CCc2ccc(C(F)(F)F)c(Cl)c2)NC(=O)[C@@H](C)N(C)C(=O)[C@H](Cc2cccc(F)c2)N(C)C(=O)CN(C)C(=O)CN(C)C1=O [Compound 830] (cyclo([Ac5c][NMeGly(cPent)][d(β3hA)][NMeA]I[Sar][Sar][NMePhe(3-F)][dNMeA][hPhe(3-Cl-4-CF3)]P))	280
CC[C@H](C)[C@@H]1NC(=O)[C@H](C)N(C)C(=O)C[C@@H](C)NC(=O)[C@H](C(C)C)N(C)C(=O)C2(CCCC2)NC(=O)[C@@H]2CCCN2C(=O)[C@H](CCc2ccc(C(F)(F)F)c(Cl)c2)NC(=O)CN(C)C(=O)[C@H](CC2CCCCC2)N(C)C(=O)CN(C)C(=O)CN(C)C1=O [Compound 697] (cyclo([Ac5c][NMeV][d(β3hA)][NMeA]I[Sar][Sar][NMeCha][Sar][hPhe(3-Cl-4-CF3)]P))	12
